In test [1] the target is T1, adenosine A2a (human) membrane (Homo sapiens, UniProt P29274).
T1 construct: purchased PerkinElmer RBHA2AM400UA
The test is described as follows: A2A adenosine receptor radioligand binding assay ([3H] CGS-21680). The settings on record: radioligand [3H] CGS-21680 6 nM, RT 2 hours. As to the method:
A second A2A adenosine receptor radioligand binding assay protocol was used. The protocol used adenosine A2a (human) membrane (PerkinElmer RBHA2AM400UA) at a concentration of […]/well/100 μl and the radioligand [3H] CGS-21680 (Cat No. PerkinElmer-NET1021250UC) at a final concentration of 6 nM. Testing compounds were diluted with DMSO to make 8-point 4-fold serial dilution, starting at 0.2 mM. CGS-15943 was the reference compound. 1 μl of compounds/high control/low control was transferred to the assay plate according to a plate map, followed by 100 μl of membrane stocks and 100 μl of radioligand, in assay buffer (50 mM Tris-HCl, 10 mM MgCl2, 1 mM EDTA, pH 7.4). The plate was sealed and incubated at RT for 2 hours. Unifilter-96 GF/C filter plates (Perkin Elmer Cat #6005174) were soaked with 50 μl of 0.3% PEI per well for at least 0.5 hour at room temperature. When the binding assays were completed, the reaction mixtures were filtered through GF/C plates using Perkin Elmer Filtermate Harvester, and each plate washed 4 times with cold wash buffer (50 mM Tris-HCl, 154 mM NaCl, pH 7.4). The filter plates were dried for 1 hour at 50 degrees. After drying, the bottom of the filter plate wells was sealed, 50 μl of Perkin Elmer Microscint 20 cocktail was added, and the top of the filter plate was sealed. ^3H trapped on the filter was counted using Perkin Elmer MicroBeta2 Reader. The data were analyzed with GraphPad Prism 5 to obtain binding IC50 values. The “Inhibition [% Control]” was calculated using the equation: % Inh=(1−Background subtracted Assay value/Background subtracted HC value)*100, where HC is high control.

The target of test [2] is T2, human recombinant adenosine A2A receptor (Homo sapiens, UniProt P29274).
T2 construct: expressed in transfected cells; host or cells: HEK-293
T2 sequence (P29274 whole entry): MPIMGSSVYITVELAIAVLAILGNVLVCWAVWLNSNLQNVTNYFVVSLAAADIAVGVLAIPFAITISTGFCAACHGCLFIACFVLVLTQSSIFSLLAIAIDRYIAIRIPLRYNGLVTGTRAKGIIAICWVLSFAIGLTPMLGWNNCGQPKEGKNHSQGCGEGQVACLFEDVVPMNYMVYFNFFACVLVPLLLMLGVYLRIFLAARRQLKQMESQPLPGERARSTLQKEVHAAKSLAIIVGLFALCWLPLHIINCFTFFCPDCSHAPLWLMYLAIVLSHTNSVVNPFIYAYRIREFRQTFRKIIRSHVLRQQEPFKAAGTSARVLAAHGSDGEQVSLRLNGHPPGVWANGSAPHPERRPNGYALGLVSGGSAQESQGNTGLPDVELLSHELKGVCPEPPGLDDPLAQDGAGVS
The test is described as follows: cAMP assay (Assay 2) in HEK-293 cells expressing A2A receptor. The class given is cell-based. The settings on record: HEK-293 cells expressing human recombinant adenosine A2A receptor; reducing A2A cAMP levels. As to the method:
The functional activity of compound 1.5 was tested using Assay 2 below, to detect the presence of cAMP. Assay 1 is an alternative assay for this purpose. Activation of G-protein coupled receptors (such as A2A) results in activation of adenylyl cyclase which converts ATP into cAMP which is used as a downstream signaling molecule. Molecules which act as GPCR (or specifically A2A receptor) antagonists cause a decrease in intracellular cAMP concentration.
Assay 2 (Table B2): This assay used HEK-293 cells expressing human recombinant adenosine A2A receptor that were grown prior to the test in media without antibiotic. 100 nL of test articles at 100× of final concentration were transferred to assay plate by Echo. Cells were washed twice with 5 mL of PBS and 10 pL of cells were mixed with 5 mL PBS. After aspirating the PBS and adding 1.5 mL versine, cells were incubated at 37° C. for 2-5 min. After centrifugation, 4 mL of medium was added and adjusted cell density to 5,000 cells/well with Stimulation Buffer. 10 pL of cells were aliquoted to the assay plate, centrifuged at 1000 rpm for 1 minute, and incubated for 60 minutes at room temperature. 5 pL 4× Eu-cAMP tracer solution and 5 pL 4× Ulight™-anti-cAMP solution were added to assay plate, followed by centrifugation and 60-minute incubation at room temperature. Plates were read on EnVision. […]

T1 sequence (P29274 whole entry): as above

For the compound `O=c1ccc2nc(-c3ccc4ncccc4c3)c(-c3ccccc3)nc2[nH]1` [Compound 1.4, 3-phenyl-2-(quinolin-6-yl)pyrido[2,3-b]pyrazin-6(5H)-one], the IC50 in test [1] worked out at 5.5 nM.

For `O=c1cc[nH]c2nc(-c3ccccc3)c(-c3ccc4ncccc4c3)nc12` [Compound 1.5, 3-phenyl-2-(quinolin-6-yl)pyrido[2,3-b]pyrazin-8(5H)-one], the IC50 was determined as 18 nM in test [1] and 325 nM in test [2].

The compound `Cn1ccc(=O)c2nc(-c3ccc4ncccc4c3)c(-c3ccccc3)nc21` [Compound 1.8, 5-methyl-3-phenyl-2-(quinolin-6-yl)pyrido[2,3-b]pyrazin-8(5H)-one] yielded an IC50 in test [1] of 958 nM.

Consider `O=c1ccc2nc(-c3cc(Cl)c4ncccc4c3)c(-c3ccccc3)nc2[nH]1` [Compound 1.12, 2-(8-chloroquinolin-6-yl)-3-phenylpyrido[2,3-b]pyrazin-6(5H)-one], for which the IC50 in test [1] was determined as 6.6 nM.

For the origin of these results see US20230066315A1, “COMPOUNDS AND USES THEREOF” (Nuvation Bio Inc., priority 2019, published 2023).
